Reference: patent publication US5677322A, “Maillard reaction inhibitor” (Otsuka Pharmaceutical Co., Ltd., priority 1993, dated 1997)

test system: Lysozyme; test: Inhibition of Maillard reaction: suppression of lysozyme dimer formation (lysozyme + fructose, SDS-PAGE); format: biochemical; settings: inhibition ratio of test compound to aminoguanidine (positive control); lysozyme 10 mg/ml, fructose 100 mM, 0.2M sodium phosphate pH 7.4, 37° C., 3 days; dimer amount by SDS-PAGE
Experimental: Lysozyme and fructose were dissolved in a buffer solution of 0.2M sodium phosphate (pH 7.4) to respectively give concentrations of 10 mg/ml and 100 mM. After incubating at 37° C. for 3 days, a definite amount of the mixture was taken out and electrophoresed with the use of SDS-PAGE. After the completion of the electrophoresis, the gel was stained with 0.2% Coomassie Brilliant Blue R-250 and the amount of the dimer thus formed was determined.
Each of the test compounds was added before the initiation of the incubation and the effect of suppressing the formation of the dimer was examined at various concentrations, whereby the IC50 value was obtained. As a positive control, aminoguanidine, which is a known glycation inhibitor, was employed and the inhibition ratio of the test compound to aminoguanidine (IC50 of aminoguanidine/IC50 of test compound) was calculated.

Compound	IC50 of aminoguanidine/IC50 of test compound
CC(C)=NN=C1NC(=O)C(CC(=O)Nc2c(C)cccc2C)S1 (stereo not drawn) [Test compound 112, 5-[N-(2,6-dimethylphenyl)carbamoylmethyl]-2-isopropylidenehydrazonothiazolidin-4-one]	6.4
CC(C)=NN=C1NC(=O)C(Cc2c[nH]c3ccc(O)cc23)N1 (stereo not drawn) [Test compound 41, 5-(5-Hydroxy-3-indolylmethyl)-2-isopropylidenehydrazonoimidazolidin-4-one]	4.5
CC(C)=NN=C1NC(=O)C(C)N1 (stereo not drawn) [Test compound 2, 2-Isopropylidenehydrazono-5-methylimidazolidin-4-one]	2.8
2-Isopropylidenehydrazono-5(R)-(N-phenylcarbamoylmethyl)thiazolidin-4-one [Test compound 109]	2.8
2-Cyclohexylmethylenehydrazono-5-(N-phenylcarbamoylmethyl)thiazolidin-4-one [Test compound 83]	0.6
4-[4-(4-Chlorobenzyloxy)phenyl]-2-isopropylidenehydrazinothiazole [Test compound 27]	3.1
O=C1CN2C(=NN1)NC(=O)C2COCc1ccccc1 (stereo not drawn) [Test compound 29, 9-Benzyloxymethyl-1,4,5,7-tetraazabicyclo[4.3.0]nonan-5-ene-3,8-dione]	0.6
CC(C)=NN=C1NC(=O)C(CC(=O)Nc2ccc(F)c(F)c2)S1 (stereo not drawn) [Test compound 49, 5-[N-(3,4-difluorophenyl)carbamoylmethyl]-2-isopropylidenehydrazonothiazolidin-4-one]	7.4
2-Isopropylidenehydrazono-5-{N-[1-methoxycarbonyl-2-(3-indolyl)ethyl]carbamoylmethyl}thiazolidin-4-one [Test compound 102]	4.3
CC(C)=NN=C1NC(=O)C(Cc2ccc(OCc3cccs3)cc2)N1 (stereo not drawn) [Test compound 36, 2-Isopropylidenehydrazono-5-[4-(2-thienylmethoxy)benzyl]imidazolidin-4-one]	3.5
5-[N-(2-carboxyphenyl)carbamoylmethyl]-2-isopropylidenehydrazonothiazolidin-4-one [Test compound 92]	0.94
CC(C)=NN=C1NC(=O)C(CC(=O)Nc2ccccc2)N1 (stereo not drawn) [Test compound 46, 2-Isopropylidenehydrazono-5-(N-phenylcarbamoylmethyl)imidazolidin-4-one]	5.7
5-(N-ethoxycarbonylmethylcarbamoylmethyl)-2-isopropylidenehydrazonothiazolidin-4-one [Test compound 19]	2.5
CC(C)=NN=C1NC(=O)C(CCCCNC(=O)OCc2ccccc2)N1 (stereo not drawn) [Test compound 62, 5-(4-Benzyloxycarbonylaminobutyl)-2-isopropylidenehydrazonoimidazolidin-4-one]	57
CC(C)=NN=C1NC(=O)C(CC(=O)OCc2ccccc2)N1 (stereo not drawn) [Test compound 44, 5-Benzyloxycarbonylmethyl-2-isopropylidenehydrazonoimidazolidin-4-one]	5.2
CC(C)=NN=C1NC(=O)C(Cc2ccc([N+](=O)[O-])cc2)N1 (stereo not drawn) [Test compound 33, 2-Isopropylidenehydrazono-5-(4-nitrobenzyl)imidazolidin-4-one]	2.4
2-Isopropylidenehydrazono-5-[N-(2-methyl-5-methoxycarbonylphenyl)carbamoylmethyl]thiazolidin-4-one [Test compound 84]	3.5
COC(=O)CC1NC(=NN=C(C)C)NC1=O (stereo not drawn) [Test compound 43, 2-Isopropylidenehydrazono-5-methoxycarbonylmethylimidazolidin-4-one]	5.4
CC(C)=NN=C1NC(=O)C(Cc2c[nH]c3ccccc23)N1 (stereo not drawn) [Test compound 40, 5-(3-Indolylmethyl)-2-isopropylidenehydrazonoimidazolidin-4-one]	2.6
2-Isopropylidenehydrazono-5-[N-(2-methoxycarbonyl-4-methylphenyl)carbamoylmethyl]imidazolidin-4-one [Test compound 96]	3.9

Compound	IC50 of aminoguanidine/IC50 of test compound
CC(C)=NN=C1NC(=O)C(Cc2c[nH]cn2)N1 (stereo not drawn) [Test compound 78, 5-(4-Imidazolylmethyl)-2-isopropylidenehydrazonoimidazolidin-4-one]	4.0
CC(C)=NN=C1NC(=O)C(CC(=O)Nc2ccccc2)S1 (stereo not drawn) [Test compound 32, 2-isopropylidenehydrazono-5-(N-phenylcarbamoylmethyl)thiazolidin-4-one]	55
CC(C)=NN=C1NC(=O)C(CC(=O)NC(C)c2ccccc2)S1 (stereo not drawn) [Test compound 72, 2-Isopropylidenehydrazono-5-[N-(1-phenylethyl)carbamoylmethyl]thiazolidin-4-one]	7.0
COc1cc(NC(=O)CC2SC(=NN=C(C)C)NC2=O)c(C(=O)O)cc1OC (stereo not drawn) [Test compound 114, 5-[N-(2-carboxy-4,5-dimethoxyphenyl)carbamoylmethyl]-2-isopropylidenehydrazonothiazolidin-4-one]	5.4
CC(C)=NN=C1NC(=O)C(Cc2ccc(OCc3c(Cl)cccc3Cl)cc2)N1 (stereo not drawn) [Test compound 5, 5-[4-(2,6-Dichlorobenzyloxy)benzyl]-2-isopropylidenehydrazonoimidazolidin-4-one]	8.0
NN=C1NC(=O)C(CC(=O)Nc2ccccc2)S1 (stereo not drawn) [Test compound 81, 2-Hydrazono-5-(N-phenylcarbamoylmethyl)thiazolidin-4-one]	0.8
2-Isopropylidenehydrazono-5-[N-(3,4,5-trichlorophenyl)carbamoylmethyl]thiazolidin-4-one [Test compound 57]	0.8
CC(C)=NN=C1NC(=O)C(Cc2ccc(OCc3cccnc3)cc2)S1 (stereo not drawn) [Test compound 48, 2-Isopropylidenehydrazono-5-[4-(3-pyridylmethoxy)benzyl]thiazolidin-4-one]	11.0
O=C1NC(=NN=C2CCCC2)NC1Cc1ccc(OCc2ccccc2)cc1 (stereo not drawn) [Test compound 77, 2-Cyclopentylidenehydrazono-5-(4-benzyloxybenzyl)imidazolidin-4-one]	2.2
CC(C)=NN=C1NC(Cc2ccc(O)cc2)C(=O)N1Cc1ccccc1 (stereo not drawn) [Test compound 9, 3-Benzyl-5-(4-hydroxybenzyl)-2-isopropylidenehydrazonoimidazolidin-4-one]	1.3
CC(C)=NN=C1NC(=O)C(Cc2ccc(OCc3ccccc3)cc2)N1 (stereo not drawn) [Test compound 1, 5-(4-Benzyloxybenzyl)-2-isopropylidenehydrazonoimidazolidin-4-one]	3.6
CC(C)=NN=C1NC(=O)C(CC(=O)Nc2ccc(OCc3ccccc3)cc2)S1 (stereo not drawn) [Test compound 50, 5-[N-(4-benzyloxyphenyl)carbamoylmethyl]-2-isopropylidenehydrazonothiazolidin-4-one]	0.3
2-Isopropylidenehydrazono-5(S)-(N-phenylcarbamoylmethyl)thiazolidin-4-one [Test compound 110]	3.1
5-[N-(4-carboxyphenyl)carbamoylmethyl]-2-isopropylidenehydrazonothiazolidin-4-one [Test compound 16]	3.1
CC(C)=NN=C1NC(=O)C(CC(=O)NCc2cccnc2)S1 (stereo not drawn) [Test compound 66, 2-Isopropylidenehydrazono-5-[N-(3-pyridylmethyl)carbamoylmethyl]thiazolidin-4-one]	4.6
CC(C)=NN=C1NC(=O)C(Cc2ccc(O)c(O)c2)N1 (stereo not drawn) [Test compound 42, 5-(3,4-Dihydroxybenzyl)-2-isopropylidenehydrazonoimidazolidin-4-one]	78.9
2-Isopropylidenehydrazono-5-[N-(4-methylthiophenyl)carbamoylmethyl]thiazolidin-4-one [Test compound 55]	5.3
CC(C)=NN=C1NC(=O)C(Cc2ccc(OCC3CCCCC3)cc2)N1 (stereo not drawn) [Test compound 35, 5-[4-(Cyclohexylmethyloxy)benzyl]-2-isopropylidenehydrazonoimidazolidin-4-one]	0.8
CCOC(=O)CN1C(=O)C(CC(=O)O)SC1=NN=C(C)C (stereo not drawn) [Test compound 20, 5-Carboxymethyl-3-ethoxycarbonylmethyl-2-isopropylidenehydrazonothiazolidin-4-one]	3.0
